# Experimental data reported in US7723347B2, “Substituted phenylamino-pyrimidines” (Bayer Schering Pharma Aktiengesellschaft, priority 2004, dated 2010).
# pIC50: −log10 of the molar value.
# What was measured:
# [1] = test system: isolated rings of the saphenous artery of rabbits; experiment: Vessel-relaxing action in vitro, phenylephrine-induced contractions of isolated saphenous artery rings; details: Oryctolagus cuniculus; concentration reducing phenylephrine-induced contraction (3×10^−8 g/ml) of rabbit saphenous artery rings by 50%
# Method: (§1) The inhibition of the enzyme is investigated in an in vitro assay with recombinant Rho kinase II. The vessel-relaxing action is determined using phenylephrine-induced contractions of isolated rings of the saphenous artery of rabbits.
# Vessel-Relaxing Action In Vitro
# Individual 3-mm-wide rings of the isolated saphenous artery of rabbits are introduced into 5 ml organ baths with Krebs-Henseleit solution (37° C., gassed with carbogen). The vessel tone is monitored isometrically and registered. Contractions are induced by addition of 3×10^−8 g of phenylephrine/ml, which is washed out again after 4 min. After a number of control cycles, the rings are pre-incubated with the substance to be examined, with the dosage being increased for each further cycle, and the subsequent contraction is compared to the intensity of the last control contraction. The concentration required to reduce the intensity of the control value by 50% (IC50) is calculated.
# [2] = target: recombinant Rho kinase II (ROKα) (UniProt Q62868); experiment: Inhibition of recombinant Rho kinase II (ROKα), 33P uptake into S6 substrate peptide; format: biochemical; details: Rho-kinase-catalyzed uptake of 33P into S6 peptide, 37° C., vs solvent control
# Method: as §1
# Inhibition of Recombinant Rho Kinase II (ROKα)
# The activity of Rho kinase is determined by the uptake of ^33P phosphate into a substrate peptide. To this end, commercially available Rho kinase II (Upstate Biotechnology) is pre-incubated at 37° C. in the presence of the S6 phosphate-acceptor peptide with the test substances or a solvent control for 10 min. The kinase reaction is then started by addition of ^33P-labeled ATP. After 20 min at 37° C., the reaction is stopped by addition of H3PO4. Aliquots are pipetted onto filters and the filters are washed and then covered with scintillator. The radioactivity of the ^33P-labeled peptides bound to the filter is measured in a Micro-Beta counter. The IC50 value corresponds to the concentration of a test substance at which the Rho-kinase-catalyzed uptake of ^33P into the peptide is inhibited by 50%, compared to a solvent control.
smiles,measurement,setting,value
"Nc1nc(Nc2ccc(Cc3ccnc4[nH]ccc34)c(F)c2)cc(C(F)(F)F)n1 [Example 8, N^4-[3-Fluoro-4-(1H-pyrrolo[2,3-b]pyridin-4-ylmethyl)phenyl]-6-(trifluoromethyl)pyrimidine-2,4-diamine]",pIC50,[1],7.07
same,pIC50,[2],8.15
"Cc1c[nH]c2nccc(Nc3ccc(Nc4cc(C(F)(F)F)nc(N)n4)cc3F)c12 [Example 11, N^4-{3-Fluoro-4-[(3-methyl-1H-pyrrolo[2,3-b]pyridin-4-yl)amino]phenyl}-6-(trifluoromethyl)pyrimidine-2,4-diamine]",pIC50,[1],8.52
same,pIC50,[2],8.40
"Cc1c[nH]c2nccc(Nc3ccc(Nc4cc(Cl)nc(N)n4)cc3F)c12 [Example 10, 6-Chloro-N^4-{3-fluoro-4-[(3-methyl-1H-pyrrolo[2,3-b]pyridin-4-yl)amino]phenyl}pyrimidine-2,4-diamine]",pIC50,[1],8.10
same,pIC50,[2],8.52
